For eleven molecules, TGI results are on record in PubChem BioAssay (NCI).

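These data come from cells grown in 96-well plates and exposed to compound for 48 hours at five concentrations. TGI: total growth inhibition.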

Among the test systems are 786-0 renal; TK-10 renal; SK-MEL-2 melanoma; A549 NSCLC; MOLT-4 leukemia; U251 CNS; SNB-19 CNS; UACC-62 melanoma; NCI/ADR-RES ovarian; OVCAR-5 ovarian; COLO 205 colon; MCF7 breast; HCC-2998 colon; BT-549 breast; UACC-257 melanoma; DU-145 prostate; HCT-15 colon; A498 renal; SNB-75 CNS.
Test in all cases: NCI-60 cell line screen, 48 h

In the case of `Cc1cc2c(cc1Cl)SC(NNC(=O)c1ccco1)=NS2(=O)=O`, the TGI in the assay with 786-0 renal, with TK-10 renal, with SK-MEL-2 melanoma, in the assay with A549 NSCLC, in the assay with MOLT-4 leukemia and with U251 CNS was over 10 µM throughout. The TGI in the assay on SNB-19 CNS, in the assay on UACC-62 melanoma, in the assay with NCI/ADR-RES ovarian, in the assay with OVCAR-5 ovarian, with COLO 205 colon and with MCF7 breast was over 10 µM in each case. Besides, the TGI in the assay on HCC-2998 colon, in the assay on BT-549 breast, with UACC-257 melanoma, in the assay with DU-145 prostate, in the assay on HCT-15 colon and in the assay with A498 renal was over 10 µM in each case. Further, the TGI with SNB-75 CNS was over 10 µM.

As for `CC12O[C@]3([C@H](C(=O)N4CCOC43C)[C@H]1Cl)[C@H]1O[C@H]12` (some centres undefined), the TGI in the assay with 786-0 renal, with TK-10 renal, in the assay with SK-MEL-2 melanoma, in the assay on A549 NSCLC, in the assay with MOLT-4 leukemia and in the assay on U251 CNS was over 100 µM each time. Moreover, the TGI is over 100 µM in the assay on SNB-19 CNS; over 100 µM with UACC-62 melanoma; over 100 µM in the assay on NCI/ADR-RES ovarian; over 100 µM in the assay on OVCAR-5 ovarian; 91.9 µM in the assay on COLO 205 colon; over 100 µM in the assay with MCF7 breast. The TGI in the assay with HCC-2998 colon, in the assay with BT-549 breast, in the assay with UACC-257 melanoma, in the assay on DU-145 prostate, in the assay with HCT-15 colon and in the assay with A498 renal was over 100 µM in each case. This molecule had a TGI in the assay with SNB-75 CNS of over 100 µM.

Consider `O=C1C(N2CCN(c3ccccn3)CC2)=C(Cl)C(=O)c2ncccc21`, for which the TGI with 786-0 renal was 3.21 µM; in the assay with TK-10 renal, over 6.41 µM; in the assay on SK-MEL-2 melanoma, 4.67 µM; in the assay with A549 NSCLC, over 10 µM; in the assay on MOLT-4 leukemia, 5.99 µM; in the assay with U251 CNS it was over 10 µM. The TGI in the assay with SNB-19 CNS is over 10 µM; with UACC-62 melanoma, over 6.76 µM; in the assay on NCI/ADR-RES ovarian, over 10 µM; in the assay on OVCAR-5 ovarian, over 10 µM; in the assay on COLO 205 colon, 3.49 µM; in the assay with MCF7 breast, 3.64 µM. Also, the TGI in the assay with HCC-2998 colon was over 6.52 µM; in the assay on BT-549 breast, over 10 µM; in the assay with UACC-257 melanoma it was over 5.88 µM; in the assay with DU-145 prostate, over 10 µM; in the assay on HCT-15 colon it was 4.06 µM; with A498 renal it was over 10 µM. In the assay with SNB-75 CNS, the TGI is over 10 µM.

Take `CC(CC[C@@H](O)C(C)(C)O)C1[C@@H](O)CC2(C)C3CC(O)C4C(C)(C)[C@@H](OC5OC(CO)C(O)C(O)C5O)CC[C@@]45C[C@@]35CC[C@]12C` (some centres undefined): the TGI in the assay with 786-0 renal, with TK-10 renal, in the assay on SK-MEL-2 melanoma, in the assay on A549 NSCLC, with MOLT-4 leukemia and with U251 CNS was over 10 µM each time. Besides, the TGI in the assay with SNB-19 CNS, in the assay with UACC-62 melanoma, with NCI/ADR-RES ovarian, in the assay with OVCAR-5 ovarian, in the assay with COLO 205 colon and in the assay with MCF7 breast was over 10 µM each time. Moreover, the TGI with HCC-2998 colon, in the assay on BT-549 breast, in the assay with UACC-257 melanoma, in the assay on DU-145 prostate, with HCT-15 colon and with A498 renal was over 10 µM in each case. In the assay on SNB-75 CNS, the TGI is over 10 µM.

For `C=C[C@@]1(C)CC[C@@H]2[C@@]3(C1)O[C@H]3CC1[C@](C)(C(=O)OC)CCC[C@@]12C` (some centres undefined), the TGI in the assay with 786-0 renal worked out at 36.8 µM; in the assay with TK-10 renal it was 51.7 µM; in the assay on SK-MEL-2 melanoma, 41.4 µM; with A549 NSCLC, 54.7 µM; in the assay with MOLT-4 leukemia, 42.2 µM; in the assay with U251 CNS, 49.6 µM. For the same molecule, the TGI in the assay on SNB-19 CNS was 30.3 µM; with UACC-62 melanoma, over 100 µM; with NCI/ADR-RES ovarian, 42.1 µM; in the assay with OVCAR-5 ovarian, 32.3 µM; with COLO 205 colon, 31.8 µM; with MCF7 breast, 33.2 µM. In addition, the TGI is 31.6 µM in the assay with HCC-2998 colon; 67.2 µM in the assay on BT-549 breast; 44.3 µM in the assay with UACC-257 melanoma; over 100 µM with DU-145 prostate; 35.8 µM in the assay with HCT-15 colon; over 100 µM with A498 renal. The molecule further returned a TGI in the assay with SNB-75 CNS of over 100 µM.

Take `COC(=O)C(Cc1ccccc1)NP(=O)(O)OCC1OC(n2cc(Br)c(=O)[nH]c2=O)CC1O` (centres undefined): the TGI in the assay with 786-0 renal, with TK-10 renal, in the assay on SK-MEL-2 melanoma, in the assay with A549 NSCLC, in the assay with MOLT-4 leukemia and with U251 CNS was over 100 µM each time. Moreover, the TGI with SNB-19 CNS, in the assay on UACC-62 melanoma, in the assay on NCI/ADR-RES ovarian, with OVCAR-5 ovarian, in the assay on COLO 205 colon and in the assay with MCF7 breast was over 100 µM each time. For the same molecule, the TGI in the assay with HCC-2998 colon, in the assay with BT-549 breast, in the assay with UACC-257 melanoma, in the assay with DU-145 prostate, in the assay on HCT-15 colon and with A498 renal was over 100 µM throughout. This molecule returned a TGI with SNB-75 CNS of over 100 µM.

For `C/C(=C(/C)c1ccc(O)cc1)c1ccc(O)cc1`, the TGI in the assay on 786-0 renal, with TK-10 renal, with SK-MEL-2 melanoma, with A549 NSCLC, with MOLT-4 leukemia and in the assay with U251 CNS was over 100 µM each time. Moreover, the TGI is over 100 µM with SNB-19 CNS; 83.3 µM in the assay on UACC-62 melanoma; over 100 µM with NCI/ADR-RES ovarian; over 100 µM with OVCAR-5 ovarian; over 100 µM with COLO 205 colon; over 100 µM in the assay on MCF7 breast. Besides, the TGI with HCC-2998 colon, in the assay with BT-549 breast, with UACC-257 melanoma, with DU-145 prostate, in the assay on HCT-15 colon and in the assay on A498 renal was over 100 µM throughout. The TGI in the assay with SNB-75 CNS was over 100 µM.

In the case of `Cc1c(C)c(C)c(-n2c(=O)n(C)c(=O)n2-n2c(=O)n(C)c(=O)n2-c2c(C)c(C)c(C)c(C)c2C)c(C)c1C`, the TGI with 786-0 renal, in the assay on TK-10 renal, in the assay with SK-MEL-2 melanoma, with A549 NSCLC, with MOLT-4 leukemia and in the assay with U251 CNS was over 100 µM each time. The TGI with SNB-19 CNS, with UACC-62 melanoma, in the assay on NCI/ADR-RES ovarian, in the assay on OVCAR-5 ovarian, in the assay with COLO 205 colon and in the assay on MCF7 breast was over 100 µM throughout. The TGI with HCC-2998 colon, in the assay on BT-549 breast, with UACC-257 melanoma, with DU-145 prostate, in the assay on HCT-15 colon and in the assay with A498 renal was over 100 µM throughout. In the assay with SNB-75 CNS, this molecule came in with a TGI of over 100 µM.

Consider `O=C(O)c1cc(CC2Cc3cc4c(cc3C2=O)CCC4)cc2c1CCC2` (centres undefined), for which the TGI in the assay with 786-0 renal, with TK-10 renal, in the assay on SK-MEL-2 melanoma, with A549 NSCLC, in the assay with MOLT-4 leukemia and with U251 CNS was over 100 µM each time. Also, the TGI with SNB-19 CNS, with UACC-62 melanoma, in the assay on NCI/ADR-RES ovarian, in the assay with OVCAR-5 ovarian, in the assay with COLO 205 colon and in the assay with MCF7 breast was over 100 µM each time. Moreover, the TGI in the assay with HCC-2998 colon, in the assay with BT-549 breast, in the assay with UACC-257 melanoma, in the assay with DU-145 prostate, with HCT-15 colon and in the assay with A498 renal was over 100 µM in each case. In the assay with SNB-75 CNS, this molecule showed a TGI of over 100 µM.

Consider `O=[N+]([O-])c1c(F)c(F)c2c(c1F)Nc1ccccc1S2`, for which the TGI in the assay on 786-0 renal was determined as 21.6 µM; in the assay on TK-10 renal it was 38.4 µM; in the assay with SK-MEL-2 melanoma, 4.75 µM; with A549 NSCLC it was 36.9 µM; in the assay with MOLT-4 leukemia, 6.57 µM; in the assay on U251 CNS, 3.9 µM. In addition, the TGI in the assay on SNB-19 CNS is 19.2 µM; in the assay on UACC-62 melanoma it was 20.4 µM; in the assay with NCI/ADR-RES ovarian it was 59.7 µM; in the assay with OVCAR-5 ovarian it was 26.5 µM; in the assay on COLO 205 colon it was 27.3 µM; in the assay with MCF7 breast, 17.8 µM. The TGI with HCC-2998 colon came out at 6.96 µM; with BT-549 breast it was 25.8 µM; in the assay on UACC-257 melanoma it was 19.8 µM; in the assay on DU-145 prostate, 13.3 µM; with HCT-15 colon it was 12.6 µM; in the assay with A498 renal, 30.4 µM. This molecule gave a TGI in the assay with SNB-75 CNS of 32.6 µM.

In the case of `COc1ccc([C@H]2CC(=O)C[C@H](c3ccc(OC)cc3)C23C(=O)c2ccccc2C3=O)cc1`, the TGI is over 100 µM with 786-0 renal; over 100 µM in the assay on TK-10 renal; 17.5 µM with SK-MEL-2 melanoma; over 100 µM with A549 NSCLC; over 100 µM in the assay with MOLT-4 leukemia; over 100 µM in the assay with U251 CNS. Besides, the TGI in the assay with SNB-19 CNS was over 100 µM; in the assay on UACC-62 melanoma, over 100 µM; with NCI/ADR-RES ovarian it was 7.69 µM; in the assay on OVCAR-5 ovarian, over 100 µM; in the assay on COLO 205 colon, 8.32 µM; with MCF7 breast, over 100 µM. Further, the TGI was 32.6 µM in the assay on HCC-2998 colon; over 100 µM in the assay with BT-549 breast; 7.74 µM with UACC-257 melanoma; over 100 µM with DU-145 prostate; over 100 µM in the assay with HCT-15 colon; over 100 µM in the assay on A498 renal. In the assay with SNB-75 CNS, the TGI worked out at 8.63 µM.
